The values that follow come from the supplement of paper PMC10307832.

Holding throughout (assay): relative viability (nuclei count vs DMSO), 5 days (fraction); higher = more cells survive
Compound in test [1]: C[As](C)SC[C@H](NC(=O)CC[C@H](N)C(=O)O)C(=O)NCC(=O)O [Darinaparsin] + C[C@@H](Oc1cc(-c2cnn(C3CCNCC3)c2)cnc1N)c1c(Cl)ccc(F)c1Cl [Crizotinib] (partner 1 µM)
The essentials: (§1)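 Each reported value is a median over duplicate plates. It expresses relative viability: treated-well nuclei count divided by vehicle-well nuclei count. Lung cancer cell lines in 1536-well plates were dosed by pin tool a day after seeding, alone with one drug or with a fixed anchor-drug dose plus five library-drug doses (not always all listed) in √10 steps, and nuclei were counted after 5 days.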

Compound in test [2]: C1CC2=C(C1)C=C(C=C2)OC3=NC(=C4C(=N3)N(C=N4)CC5=CC=C(C=C5)C6=CC=CC=C6)N[C@@H](CC7=CC=CC=C7)CO [QS11] + C[C@]1(O)C[C@@H](c2nc(-c3ccc4ccc(-c5ccccc5)nc4c3)c3c(N)nccn32)C1 [Linsitinib] (partner 1 µM)
The essentials: as §1

Compound in test [3]: C[As](C)SC[C@H](NC(=O)CC[C@H](N)C(=O)O)C(=O)NCC(=O)O [Darinaparsin] + CC(=O)c1c(C)c2cnc(Nc3ccc(N4CCNCC4)cn3)nc2n(C2CCCC2)c1=O [Palbociclib] (partner 0.5 µM)
The gist of the method:
as §1

Compound in test [4]: C[As](C)SC[C@H](NC(=O)CC[C@H](N)C(=O)O)C(=O)NCC(=O)O [Darinaparsin] + NC(=O)Nc1cc(-c2cccc(F)c2)sc1C(=O)N[C@H]1CCCNC1 [AZD7762] (partner 0.2 µM)
The essentials: as §1

Consider LCLC-97TM1, for which the relative viability in test [1] (first compound 0.08 µM) was 0.517; in test [1] (first compound 0.8 µM), 0.354; in test [1] (first compound 2.53 µM), 0.271; in test [1] (first compound 8 µM), 0.372; in test [2] (first compound 0.08 µM), 0.15; in test [2] (first compound 0.253 µM) it was 0.17. Moreover, the relative viability in test [2] (first compound 0.8 µM) came to 0.233; in test [2] (first compound 2.53 µM) it was 0.237; in test [2] (first compound 8 µM) it was 0.293; in test [3] (first compound 0.08 µM), 0.317; in test [3] (first compound 0.8 µM), 0.2; in test [3] (first compound 2.53 µM), 0.237. In addition, the relative viability in test [3] (first compound 8 µM) came to 0.251; in test [4] (first compound 0.08 µM) it was 0.128; in test [4] (first compound 0.8 µM), 0.247; in test [4] (first compound 2.53 µM), 0.314; in test [4] (first compound 8 µM) it was 0.254.
